Holding throughout (format): biochemical
For test [1], the target named is T1, HCV NS5B (HCV RdRp) (Orthohepacivirus hominis, UniProt A0A140D8J5).
T1 construct: NS5B residues 1-570 (SMSY to ARFR) of the genome polyprotein, C-terminal truncation, C-terminal His6 tag kept, pET-26b, E. coli BL21(DE3)
In words: two-step single-nucleotide-incorporation assay, time course, urea-PAGE, Stain-All. As to conditions: T30/pGG, CTP 500 uM as only step 2 substrate, no Mn2+, pH 6.5, 30 C.

Test [2] deals with T2, HPgV-2 NS5B (HPgV-2 RdRp) (Human hepegivirus, UniProt A0A2L0ARU6).
T2 construct: NS5B residues 1-551 (QSYN to GASR) of the genome polyprotein, C-terminal truncation, C-terminal His6 tag kept, pET-26b, E. coli BL21(DE3)
The description is as above. As to conditions: T30/pGG, CTP 500 uM as only step 2 substrate, Mg2+/Mn2+, pH 6.5, 30 C.

In test [3] the target is T1, HCV NS5B (HCV RdRp). The test is described as follows: two-step single-nucleotide-incorporation assay, urea-PAGE, Stain-All. The settings on record: T32 RNA template, pGG primer, pH 6.5, 30 C; sof-TP dose response from 50 uM; UTP analogue, chain terminator.

In the case of `Nc1ccn([C@@H]2O[C@H](COP(=O)(O)OP(=O)(O)OP(=O)(O)O)[C@@H](O)[C@H]2O)c(=O)n1` [CTP], the “two-step single-nucleotide-incorporation assay, time course, urea-PAGE, Stain-Al” value at HCV NS5B (HCV RdRp) [1] is “no significant difference in the synthesis of the correct P10 between HCV and HPgV-2 NS5B”; in test [2], “no significant difference in the synthesis of the correct P10 between HCV and HPgV-2 NS5B”.

As for `C[C@@]1(F)[C@H](O)[C@@H](COP(=O)(O)OP(=O)(O)OP(=O)(O)O)O[C@H]1n1ccc(=O)[nH]c1=O` [PSI-7409], the “two-step single-nucleotide-incorporation assay, urea-PAGE, Stain-All” value on HCV NS5B (HCV RdRp) [3] is “a clear P9S band was observed in the presence of HCV NS5B”.

These data come from article PMC9603181, “RNA-Dependent RNA Polymerase of the Second Human Pegivirus Exhibits a High-Fidelity Feature” (Microbiology Spectrum, 2022).
